Experimental findings from patent publication US9462808B2, “Pesticidal compositions” (Syngenta Participants AG, priority 2010, dated 2016) are described below.

Molecules are shown by their SMILES. Where two headings read alike, the source gives them in different places.

Common to all, as to format: in vivo
The subject of data set [1] is Wheat, Triticium durum (Poaceae) var. Arina. Description: Reduction of phytotoxicity by safeners applied as seed treatment with compound of formula I on wheat (Example B4). The method, then:
Test compounds: compound P1.2 according to Table P1, as SC 050; Safener 1=cloquintocet-mexyl, as WP 25, Safener 2=mefenpyr-diethyl as WP 25, Safener 3═N-(2-methoxybenzoyl)-4-[(methylaminocarbonyl)amino]benzenesulfonamide, as SC 100. • Plants: Wheat, Triticium durum (Poaceae) var. Arina • Seed treatment: The seeds were treated by shaking the seeds with a slurry for 30 seconds in a glass flask. Treatments were 10% overdosed to compensate for substance adhering to the flask. In a first step, compound P1.2 was treated on the seeds. Afterwards the safeners were treated on the dried seeds. […] The loading rates of the safeners were 0.5, 0.1 and 0.025 mg a.i./seed. Soil: “Drench soil”, loamy sand, prefertilised with 1 g/I soil of Landor 13.1.3.21. • Procedures: 9-cm pots were filled with 330 ml of Drench soil loamy sand and the seeds were placed into the soil in about 5 mm beneath the soil surface. • Conditions: During the growth period the plants were kept in a randomised fashion in a greenhouse chamber at 25° C. during daytime, 23° C. during night, 50-60% rH, a 14-hour photoperiod and artificial lighting when natural light fell below 20 kLux. During the exposure the assay was kept at 22° C. • Assessments: 14 days after emergence, the phytotoxicity was recorded.

Data set [2] relates to Rhopalosiphum padi (cereal aphid). Description: Activity against Rhopalosiphum padi (cereal aphid) on wheat, spray with safener cloquintocet, 6 days after application (Example B1). Conditions: 144 h, test compound 25 ppm, adjuvant Mero 0.1% v/v, 6 days after application, Abbott's formula, read-out: Efficacy (% mortality) against cereal aphids (Rhopalosiphum padi). The method, then:
One replicate consisted of 4 wheat plants per pot. […] 9 days after seeding all wheat plants (10replicates) were sprayed with respective test solutions. […] 6 days after application aphid mortality and phytotoxicity were evaluated. […] Additionally the average plant height per replicate was measured.

Data set [3] shares this test system. Put plainly: Activity against Rhopalosiphum padi (cereal aphid) on wheat, selected safeners at different mixture ratios, 7 DAA (Example B3). Conditions: AI rate 12.5 ppm. The method, then:
One replicate consisted of 4 wheat plants per pot. […] Test solutions contained the formulated test compounds, the adjuvant Mero (0.1% v/v), and selected safeners at different mixture ratios. 7d after application aphid mortality and was evaluated.

The subject of data set [4] is Nilaparvata lugens (brown plant hopper, BPH). Put plainly: Activity against Nilaparvata lugens (brown plant hopper, BPH) on rice, spray with safeners, 7 d after application (Example B2). Conditions: 168 h, read-out: % mortality, corr.; for mortality at 25 ppm: 25 ppm AI; for mortality at 50 ppm: 50 ppm AI; for mortality at 100 ppm: 100 ppm AI; for mortality at 200 ppm: 200 ppm AI. Here is the method:
Eight replicates (pots with rice plants) were sprayed with respective test solutions. Test solutions contained the formulated test compound and the safener cloquintocet and N-(2-methoxybenzoyl)-4-[(methylaminocarbonyl)amino]-benzenesulfonamide at different ratios. 4 pots were infested with plant hopper nymphs right after application. 7d after application BPH mortality and plant safety were evaluated. […] Assessment on plant safety was done by measuring the average plant height per replicate.

Broadly, the mortality is the share of the test organisms that died. `CCOC(=O)OC1=C(c2c(C)cc(C)cc2C)C(=O)N(C)C12CCN(OC)CC2` [Compound P1.2, Carbonic acid ethyl ester 8-methoxy-1-methyl-2-oxo-3-(2,4,6-trimethyl-phenyl)-1,8-diaza-spiro[4.5]dec-3-en-4-yl ester]: in data set [1] (P1.2 0.1 mg a.i./seed with safeners (cloquintocet-mexyl, mefenpyr-diethyl, N-(2-methoxybenzoyl)-4-[(methylaminocarbonyl)amino]benzenesulfonamide), wheat, 14 days after emergence), the “Phytotoxicity after seed treatment” value is given as “safeners protect the plants from the adverse effects”. For the same compound, the “Phytotoxicity (%) of compound P1.2 on wheat, control without safener” value in data set [1] (seed treatment, 1 mg compound P1.2, without safener) is “Control: application of 1 mg compound P1.2. without safener results in 64.3% phyotoxicity”. The mortality at 25 ppm in data set [2] (ratio AI:safener cell blank (no safener), wheat) was 97.4%; in data set [2] (safener cloquintocet, ratio AI:safener 1:1, wheat) it was 93.4%; in data set [2] (safener cloquintocet, ratio AI:safener 1:2, wheat), 94.4%; in data set [4] (Cloquintocet, ratio AI:safener 1.9:1, 7 d after application), 30%; in data set [4] (Safener 2, ratio AI:safener 1.9:1, 7 d after application) it was 3%. In addition, the “Efficacy (% mortality) against cereal aphids (Rhopalosiphum padi) 7DAA” value came out at 94% in data set [3] (+ Cloquintocet-mexyl, ratio AI:safener 1:2); 91% in data set [3] (+ Cloquintocet-mexyl, ratio AI:safener 1:4); 91% in data set [3] (+ Cloquintocet-mexyl, ratio AI:safener 1:8); 97% in data set [3] (+ Mefenpyr-diethyl, ratio AI:safener 1:2); 92% in data set [3] (+ Mefenpyr-diethyl, ratio AI:safener 1:4); 92% in data set [3] (+ Mefenpyr-diethyl, ratio AI:safener 1:8). Further, the “Efficacy (% mortality) against cereal aphids (Rhopalosiphum padi) 7DAA” value in data set [3] (+ Safener 2 (N-(2-methoxybenzoyl)-4-[(methylaminocarbonyl)amino]benzenesulfonamide), ratio AI:safener 1:2) amounted to 97%; in data set [3] (+ Safener 2 (N-(2-methoxybenzoyl)-4-[(methylaminocarbonyl)amino]benzenesulfonamide), ratio AI:safener 1:4) it was 95%; in data set [3] (+ Safener 2 (N-(2-methoxybenzoyl)-4-[(methylaminocarbonyl)amino]benzenesulfonamide), ratio AI:safener 1:8) it was 97%; in data set [3] (no safener, spray on wheat, Abbott's formula), 98%. Moreover, the mortality at 12.5 ppm in data set [4] (12.5 ppm AI, Safener 2, ratio AI:safener 0.9:1, 7 d after application) is 0%. Besides, the mortality at 50 ppm worked out at 57% in data set [4] (Cloquintocet, ratio AI:safener 1.25:1, 7 d after application) and 42% in data set [4] (Safener 2, ratio AI:safener 1.25:1, 7 d after application). Also, the mortality at 100 ppm was determined as 78% in data set [4] (Cloquintocet, ratio AI:safener 7.5:1, 7 d after application) and 68% in data set [4] (Safener 2, ratio AI:safener 7.5:1, 7 d after application). For the same compound, the mortality at 200 ppm in data set [4] (Cloquintocet, ratio AI:safener 15:1, 7 d after application) came out at 93%; in data set [4] (Safener 2, ratio AI:safener 15:1, 7 d after application), 85%.
